Counter-ions that a name gives are not always drawn. One block for each compound: values may come before it.
Tests used:
[1] = biological target: T1, H^+ /K^+ -ATPase (Oryctolagus cuniculus, UniProt P27112); assay: Inhibition of enzyme activity: in vitro inhibition of H+/K+-ATPase (TEST 1); assay type: biochemical, rabbit; conditions: 5 min pre-incubation at 37° C., 4 mM ATP
T1 construct: The gastric mucous membrane was removed from a rabbit; from tissue; host or cells: rabbit gastric mucosa, microsomal fraction (77,000 g)
T1 sequence (P27112 2-1035 limits assumed): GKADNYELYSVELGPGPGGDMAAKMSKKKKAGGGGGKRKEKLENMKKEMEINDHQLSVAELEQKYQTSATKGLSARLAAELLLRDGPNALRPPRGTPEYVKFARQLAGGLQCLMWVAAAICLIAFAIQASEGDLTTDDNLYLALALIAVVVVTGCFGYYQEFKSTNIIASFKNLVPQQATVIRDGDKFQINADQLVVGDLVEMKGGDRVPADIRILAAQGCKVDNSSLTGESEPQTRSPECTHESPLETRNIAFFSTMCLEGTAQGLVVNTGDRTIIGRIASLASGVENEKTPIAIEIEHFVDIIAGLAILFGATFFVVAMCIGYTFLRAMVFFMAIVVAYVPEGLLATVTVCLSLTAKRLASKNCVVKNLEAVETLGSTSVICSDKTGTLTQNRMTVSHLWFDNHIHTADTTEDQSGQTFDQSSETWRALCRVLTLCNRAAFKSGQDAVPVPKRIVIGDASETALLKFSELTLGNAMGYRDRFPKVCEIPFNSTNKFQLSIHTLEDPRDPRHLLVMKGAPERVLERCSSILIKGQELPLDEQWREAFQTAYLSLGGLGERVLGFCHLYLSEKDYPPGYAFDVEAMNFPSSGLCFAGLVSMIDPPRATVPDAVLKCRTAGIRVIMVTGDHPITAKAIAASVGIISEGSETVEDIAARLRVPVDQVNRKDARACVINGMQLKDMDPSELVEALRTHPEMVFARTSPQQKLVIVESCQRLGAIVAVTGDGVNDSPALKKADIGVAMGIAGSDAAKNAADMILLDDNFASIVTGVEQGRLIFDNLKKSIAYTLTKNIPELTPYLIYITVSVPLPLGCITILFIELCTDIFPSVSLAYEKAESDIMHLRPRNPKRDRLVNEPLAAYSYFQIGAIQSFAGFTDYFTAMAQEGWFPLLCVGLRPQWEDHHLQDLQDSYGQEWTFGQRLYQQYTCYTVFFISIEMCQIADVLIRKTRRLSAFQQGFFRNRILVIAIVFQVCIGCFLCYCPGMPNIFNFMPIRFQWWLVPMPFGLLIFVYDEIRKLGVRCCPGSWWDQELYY
T1 sequence (P18597 whole entry partner): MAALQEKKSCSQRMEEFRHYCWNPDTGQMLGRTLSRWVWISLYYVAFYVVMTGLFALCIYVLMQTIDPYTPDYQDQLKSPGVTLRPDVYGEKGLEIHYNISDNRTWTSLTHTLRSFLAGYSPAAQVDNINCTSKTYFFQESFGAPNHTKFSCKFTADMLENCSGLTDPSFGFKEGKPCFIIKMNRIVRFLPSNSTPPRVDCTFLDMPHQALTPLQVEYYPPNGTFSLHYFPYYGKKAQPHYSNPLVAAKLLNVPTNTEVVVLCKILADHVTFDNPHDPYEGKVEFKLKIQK
Protocol: In this test, omeprazole [5-methoxy-2-[[(4-methoxy-3,5-dimethyl-2-pyridinyl)methyl]sulfinyl]-1H-benzimidazole] was used as the control compound.
The gastric mucous membrane was removed from a rabbit and then centrifuged with 77,000 g using a ultra-centrifuge to separate the microsomal fraction which was used as the source of H^+ /K^+ -ATPase enzyme for this test. 60 μg of H^+ /K^+ -ATPase was pre-incubated with the sample (the compound according to the present invention) for 5 minutes at 37° C. and then 4 mM ATP as the substrate and 4 mM Mg^++, 20 mM K^+ as the cofactor were added thereto. Then, the amount of inorganic phosphorus thus produced was determined using a spectrophotometer at 660 nm and converted into the amount of protein. […]

[2] = tested on: gastric juice secretion; assay: Effect on inhibition of gastric juice secretion, in vivo, Shay method (TEST 2); design: species or system rat (SD male rats); conditions: for Volume of gastric juice / Inhibition rate, gastric juice secretion: into duodenum, 5 hours; for Volume of gastric juice: pylorus-ligated rats; for Inhibition rate, gastric juice secretion: vs normal group
Protocol: (§1) The specific test methods are as follows.
(§2) SD male rats (200±20 g) were fasted for 24 hours, except for water, and then anesthesized with ether. The abdomen of rats was incised and then the pylorus was ligated. The test compounds were suspended or dissolved in 5% CMC (carboxymethylcellulose) and injected into duodenum. After the abdomen was sutured, the rats were allowed to stand for 5 hours and then sacrificed with ether. The stomach was removed from rats and the gastric juices were collected. The gastric juice was centrifuged with 10,000 xg for 10 minutes at 4° C. to remove the precipitate. The amount of gastric juice and acidity were determined using pH 7.0 end point assay with 0.02N NaOH and then the total acid output was calculated.

[3] = tested on: gastric acidity; assay: Effect on inhibition of acidity (total acid output), in vivo, Shay method (TEST 2); design: species or system rat (SD male rats); conditions: for Volume (acidity, total acid output) / Inhibition rate, acidity: into duodenum, 5 hours; for Volume (acidity, total acid output): pylorus-ligated rats; for Inhibition rate, acidity: vs normal group
Protocol: as §1, §2

[4] = in words, even at a lower dose than that of the known anti-ulcer agent

SMILES: COc1ccnc(CSc2nc3cc(-n4cccc4)ccc3[nH]2)c1C [Compound 1, 2-[[(4-methoxy-3-methyl)-2-pyridinyl]methylthio]-5-(1H-pyrrol-1-yl)-1H-benzimidazole]
IC50 [1]: > 400 µM

SMILES: COc1ccnc(CS(=O)(=O)c2nc3cc(-n4cccc4)ccc3[nH]2)c1C [Compound 3]
IC50 [1]: > 400 µM

SMILES: COc1c(C)cnc(C[S+]([O-])c2nc3cc(-n4cccc4)ccc3[nH]2)c1C (stereo not shown) [Compound 4]
IC50 [1]: 210 µM

SMILES: COc1cc(C[S+]([O-])c2nc3cc(-n4cccc4)ccc3[nH]2)ncc1C (stereo not shown) [Compound 5]
IC50 [1]: 32 µM
Volume of gastric juice ([2]; 10 mg/kg): 1.31 ± 0.23 ml/100 g BW
Inhibition rate, gastric juice secretion ([2]; 10 mg/kg): 52.81%
Volume of gastric juice ([2]; 30 mg/kg): 0.99 ± 0.16 ml/100 g BW
Inhibition rate, gastric juice secretion ([2]; 30 mg/kg): 64.30%
effect for inhibition of gastric acid secretion ([2]; in words): good effects
inhibition of gastric juice secretion [2, 4]: strong inhibition of gastric juice secretion
Volume (acidity, total acid output) ([3]; 10 mg/kg): 16.89 ± 4.06 μ Eq/hr
Inhibition rate, acidity ([3]; 10 mg/kg): 70.60%
Volume (acidity, total acid output) ([3]; 30 mg/kg): 5.59 ± 2.22 μ Eq/hr
Inhibition rate, acidity ([3]; 30 mg/kg): 90.27%
effect for lowering acidity ([3]; in words): good effects
acidity lowering effect [3, 4]: high acidity lowering effect

SMILES: Cc1cnc(C[S+]([O-])c2nc3cc(-n4cccc4)ccc3[nH]2)cc1C (stereo not shown) [Compound 6]
IC50 [1]: ~400 µM

SMILES: Cc1ccnc(C[S+]([O-])c2nc3cc(-n4cccc4)ccc3[nH]2)c1 (stereo not shown) [Compound 7]
IC50 [1]: > 400 µM

SMILES: COc1ccnc(C[S+]([O-])c2nc3cc(-n4cccc4)ccc3[nH]2)c1 (stereo not shown) [Compound 8]
IC50 [1]: 91 µM
Volume of gastric juice ([2]; 10 mg/kg): 1.42 ± 0.24 ml/100 g BW
Inhibition rate, gastric juice secretion ([2]; 10 mg/kg): 28.85%
Volume of gastric juice ([2]; 30 mg/kg): 0.87 ± 0.15 ml/100 g BW
Inhibition rate, gastric juice secretion ([2]; 30 mg/kg): 56.09%
effect for inhibition of gastric acid secretion ([2]; in words): good effects
Volume (acidity, total acid output) ([3]; 10 mg/kg): 14.29 ± 2.81 μ Eq/hr
Inhibition rate, acidity ([3]; 10 mg/kg): 60.81%
Volume (acidity, total acid output) ([3]; 30 mg/kg): 2.92 ± 1.42 μ Eq/hr
Inhibition rate, acidity ([3]; 30 mg/kg): 91.99%
effect for lowering acidity ([3]; in words): good effects

SMILES: CCOc1ccnc(C[S+]([O-])c2nc3cc(-n4cccc4)ccc3[nH]2)c1C (stereo not shown) [Compound 9]
IC50 [1]: 64 µM
Volume of gastric juice ([2]; 10 mg/kg): 1.50 ± 0.15 ml/100 g BW
Inhibition rate, gastric juice secretion ([2]; 10 mg/kg): 36.04%
Volume of gastric juice ([2]; 30 mg/kg): 1.14 ± 0.12 ml/100 g BW
Inhibition rate, gastric juice secretion ([2]; 30 mg/kg): 51.46%
effect for inhibition of gastric acid secretion ([2]; in words): good effects
Volume (acidity, total acid output) ([3]; 10 mg/kg): 11.84 ± 3.10 μ Eq/hr
Inhibition rate, acidity ([3]; 10 mg/kg): 56.66%
Volume (acidity, total acid output) ([3]; 30 mg/kg): 3.80 ± 1.54 μ Eq/hr
Inhibition rate, acidity ([3]; 30 mg/kg): 86.09%
effect for lowering acidity ([3]; in words): good effects

SMILES: CCc1cnc(C[S+]([O-])c2nc3cc(-n4cccc4)ccc3[nH]2)cc1OC (stereo not shown) [Compound 10]
IC50 [1]: 8.8 µM

SMILES: COc1ccnc(C[S+]([O-])c2nc3cc(-n4cccc4)ccc3[nH]2)c1C (stereo not shown) [Compound 16, 2-[[(4-methoxy-3-methyl)-2-pyridinyl]methylsulfinyl]-5-(1H-pyrrol-1-yl)-1H-benzimidazole sodium salt]
IC50 [1]: 28 µM
Volume of gastric juice ([2]; 3 mg/kg, sodium salt): 2.05 ± 0.16 ml/100 g BW
Inhibition rate, gastric juice secretion ([2]; 3 mg/kg, sodium salt): 41.29%
Volume of gastric juice ([2]; 10 mg/kg, sodium salt): 1.35 ± 0.12 ml/100 g BW
Inhibition rate, gastric juice secretion ([2]; 10 mg/kg, sodium salt): 61.51%
Volume of gastric juice ([2]; 30 mg/kg, sodium salt): 1.17 ± 0.20 ml/100 g BW
Inhibition rate, gastric juice secretion ([2]; 30 mg/kg, sodium salt): 66.61%
effect for inhibition of gastric acid secretion ([2]; in words): good effects
Volume (acidity, total acid output) ([3]; 3 mg/kg, sodium salt): 22.59 ± 2.88 μ Eq/hr
Inhibition rate, acidity ([3]; 3 mg/kg, sodium salt): 70.05%
Volume (acidity, total acid output) ([3]; 10 mg/kg, sodium salt): 10.99 ± 3.05 μ Eq/hr
Inhibition rate, acidity ([3]; 10 mg/kg, sodium salt): 85.43%
Volume (acidity, total acid output) ([3]; 30 mg/kg, sodium salt): 1.98 ± 1.21 μ Eq/hr
Inhibition rate, acidity ([3]; 30 mg/kg, sodium salt): 97.37%
effect for lowering acidity ([3]; in words): good effects

SMILES: COc1ccnc(C[S+]([O-])c2nc3cc(-n4cccc4)ccc3[nH]2)c1C (stereo not shown) [Compound 17]
IC50 [1]: 13 µM
Volume of gastric juice ([2]; 3 mg/kg): 1.31 ± 0.18 ml/100 g BW
Inhibition rate, gastric juice secretion ([2]; 3 mg/kg): 54.79%
Volume of gastric juice ([2]; 10 mg/kg): 1.23 ± 0.20 ml/100 g BW
Inhibition rate, gastric juice secretion ([2]; 10 mg/kg): 57.55%
Volume of gastric juice ([2]; 30 mg/kg): 1.15 ± 0.15 ml/100 g BW
Inhibition rate, gastric juice secretion ([2]; 30 mg/kg): 60.38%
effect for inhibition of gastric acid secretion ([2]; in words): good effects
Volume (acidity, total acid output) ([3]; 3 mg/kg): 14.94 ± 3.02 μ Eq/hr
Inhibition rate, acidity ([3]; 3 mg/kg): 75.02%
Volume (acidity, total acid output) ([3]; 10 mg/kg): 8.50 ± 1.30 μ Eq/hr
Inhibition rate, acidity ([3]; 10 mg/kg): 85.79%
Volume (acidity, total acid output) ([3]; 30 mg/kg): 6.06 ± 3.05 μ Eq/hr
Inhibition rate, acidity ([3]; 30 mg/kg): 89.87%
effect for lowering acidity ([3]; in words): good effects

SMILES: COc1ccc2[nH]c([S+]([O-])Cc3ncc(C)c(OC)c3C)nc2c1 (stereo not shown) [Omeprazole, 5-methoxy-2-[[(4-methoxy-3,5-dimethyl-2-pyridinyl)methyl]sulfinyl]-1H-benzimidazole, reference compound]
IC50 [1]: ~160 µM
Volume of gastric juice ([2]; 10 mg/kg): 1.68 ± 0.30 ml/100 g BW
Inhibition rate, gastric juice secretion ([2]; 10 mg/kg): 54.49%
Volume (acidity, total acid output) ([3]; 10 mg/kg): 12.46 ± 1.85 μ Eq/hr
Inhibition rate, acidity ([3]; 10 mg/kg): 84.00%

The next lines start with results.

IC50 [1]: > 400 µM
SMILES: [O-][S+](Cc1ccccn1)c1nc2cc(-n3cccc3)ccc2[nH]1 (stereo not shown) [Compound 11]

IC50 [1]: 85 µM
SMILES: Cc1cnc(C[S+]([O-])c2nc3cc(-n4cccc4)ccc3[nH]2)c(C)c1 (stereo not shown) [Compound 12]

IC50 [1]: 100 µM
SMILES: Cc1c(OCC(F)(F)F)ccnc1C[S+]([O-])c1nc2cc(-n3cccc3)ccc2[nH]1 (stereo not shown) [Compound 13, 2-[[(4-(2,2,2-trifluoroethoxy)-3-methyl)-2-pyridinyl]methylsulfinyl]-5-(1H-pyrrol-1-yl)-1H-benzimidazole]

IC50 [1]: > 400 µM
SMILES: Cc1c(OCC(F)(F)C(F)(F)F)ccnc1C[S+]([O-])c1nc2cc(-n3cccc3)ccc2[nH]1 (stereo not shown) [Compound 14, 2-[[(4-(2,2,3,3,3-pentafluoropropoxy)-3-methyl)-2-pyridinyl]methylsulfinyl]-5-(1H-pyrrol-1-yl)-1H-benzimidazole]

IC50 [1]: 33 µM
SMILES: COc1ccnc(C[S+]([O-])c2nc3cc(-n4c(C)ccc4C)ccc3[nH]2)c1C (stereo not shown) [Compound 15, 2-[[(4-methoxy-3-methyl)-2-pyridinyl]methylsulfinyl]-5-(1H-2,5-dimethylpyrrol-1-yl)-1H-benzimidazole]

IC50 [1]: 38 µM
SMILES: COc1cc(C[S+]([O-])c2nc3cc(-n4cccc4)ccc3[nH]2)ncc1C (stereo not shown) [Compound 18]
Volume of gastric juice ([2]; 3 mg/kg): 2.24 ± 0.12 ml/100 g BW
Inhibition rate, gastric juice secretion ([2]; 3 mg/kg): 27.35%
Volume of gastric juice ([2]; 10 mg/kg): 2.14 ± 0.30 ml/100 g BW
Inhibition rate, gastric juice secretion ([2]; 10 mg/kg): 30.90%
Volume of gastric juice ([2]; 30 mg/kg): 1.53 ± 0.19 ml/100 g BW
Inhibition rate, gastric juice secretion ([2]; 30 mg/kg): 50.42%
Volume (acidity, total acid output) ([3]; 3 mg/kg): 28.37 ± 3.44 μ Eq/hr
Inhibition rate, acidity ([3]; 3 mg/kg): 53.39%
Volume (acidity, total acid output) ([3]; 10 mg/kg): 23.40 ± 3.94 μ Eq/hr
Inhibition rate, acidity ([3]; 10 mg/kg): 61.55%
Volume (acidity, total acid output) ([3]; 30 mg/kg): 15.72 ± 3.60 μ Eq/hr
Inhibition rate, acidity ([3]; 30 mg/kg): 74.18%
